Row | Compound | logP
1 | Nc1c(Cl)c(Cl)c(Cl)c(Cl)c1Cl | 4.59
2 | Cc1cc(C)c(C)c(C)c1C | 4.56
3 | Cc1ccc(C)c(C)c1C | 4.11
4 | Nc1cc(Cl)c(Cl)c(Cl)c1 | 3.32
5 | ClC1=C(Cl)C2(Cl)C3C4CC(C5OC45)C3C1(Cl)C2(Cl)Cl (configuration not stated) | 5.11
6 | Oc1cc(Cl)cc(Cl)c1 | 3.26
7 | Cc1cc(C)cc(C)c1 | 3.84
8 | Oc1ccc(Cl)c(Cl)c1 | 3.05
9 | Cc1cc(C)c(C)c(C)c1 | 4.17
10 | Oc1cc(Cl)c(Cl)c(Cl)c1 | 3.75
11 | Nc1ccc(Cl)c(Cl)c1Cl | 3.33
12 | Nc1c(Cl)cccc1Cl | 2.71
